The text below walks through data of PubChem BioAssay AID220 (DTP/NCI, 2004).

Each structure is given as a SMILES string. Values joined by “and” are separate entries in the source; they are usually repeats but may differ in a detail not shown here. Equal values may be shown once. Inconclusive results are not listed. Starred links: 1 amine or outer side, 2 acyl side, 3 side chain; linkers in the order of their positions; H or OH if unused. Positions of bridges follow the written chain, without caps; N, C: chain ends. Non-standard residues stand in square brackets, D forms with d. Residues, ends and D or L forms follow the SMILES beside them. Chains are numbered I, II in the order given. Actinocin(1to9) = Cc1c2oc3c(C)ccc(C(=O)[*:2])c3nc-2c(C(=O)[*:1])c(N)c1=O; NMeV = CN[CH](C(=O)O)C(C)C; Aze = O=C(O)[CH]1CCN1; Sar = CNCC(=O)O

This assay deals with CD8F1 mice, subcutaneous mammary adenocarcinoma, T/C%. Briefly: NCI In Vivo Anticancer Drug Screen. Data for tumor model Mammary Adenocarcinoma CD8F1 (subcutaneous) in CD8F1. The settings on record: higher = larger tumour. Here is the method:
The antitumor activity of compounds was measured in mice bearing transplantable tumors. Survival or tumor size were measured and the results are expressed as the measurement made in the treated group (T) divided by the measurement made in the vehicle treated control group (C). The tumor model used in this assay is Mammary Adenocarcinoma CD8F1 (subcutaneous) in CD8F1

[1] abbreviates: endpoint: median tumor weight (est.), dose: 100.0 mg/kg/injection, schedule: Q07DX005 (ip), vehicle: saline with Tween-80.
The mark [2] stands for this setting: endpoint: median tumor weight (est.), dose: 3.12 mg/kg/injection, schedule: Q07DX005 (ip), vehicle: saline with Tween-80.
[3] abbreviates: endpoint: median tumor weight (est.), dose: 6.25 mg/kg/injection, schedule: Q07DX005 (ip), vehicle: saline with Tween-80.
Where [4] appears, read: endpoint: median tumor weight change, dose: 50.0 mg/kg/injection, schedule: Q01DX001 (ip), vehicle: saline with Tween-80.
[5] abbreviates: endpoint: median tumor weight change, dose: 100.0 mg/kg/injection, schedule: Q01DX001 (ip), vehicle: saline with Tween-80.
Setting [6] is: endpoint: median tumor weight (est.), dose: 25.0 mg/kg/injection, schedule: Q07DX005 (ip), vehicle: saline with Tween-80.
[7] abbreviates: endpoint: median tumor weight (est.), dose: 50.0 mg/kg/injection, schedule: Q07DX005 (ip), vehicle: saline with Tween-80.
The mark [8] stands for this setting: endpoint: median tumor weight change, dose: 125.0 mg/kg/injection, schedule: Q01DX001 (ip), vehicle: Klucel (hydroxypropylcellulose) (HPC).
The mark [9] stands for this setting: endpoint: median tumor weight change, dose: 250.0 mg/kg/injection, schedule: Q01DX001 (ip), vehicle: Klucel (hydroxypropylcellulose) (HPC).
[10] abbreviates: endpoint: median tumor weight change, dose: 500.0 mg/kg/injection, schedule: Q01DX001 (ip), vehicle: Klucel (hydroxypropylcellulose) (HPC).

As to `Cc1c2oc3c(C)ccc(C(=O)NC4C(=O)NC(C(C)C)C(=O)N5CCCC5C(=O)N(C)CC(=O)N(C)C(C(C)C)C(=O)OC4C)c3nc-2c(C(=O)NC2C(=O)NC(C(C)C)C(=O)N3CCC3C(=O)N(C)CC(=O)N(C)C(C(C)C)C(=O)OC2C)c(N)c1=O` (centres undefined) (I: TV[Aze][Sar][NMeV] / II: TVP[Sar][NMeV]; ester I:1-I:C, II:1-II:C; linker I:N-II:N via Actinocin(1to9); configuration not given here), the T/C (endpoint: median tumor weight (est.), dose: 300.0 micrograms/kg/injection, schedule: Q07DX005 (ip), vehicle: saline + alcohol) was 34 % of control and 44 % of control; the T/C (endpoint: median tumor weight (est.), dose: 600.0 micrograms/kg/injection, schedule: Q07DX005 (ip), vehicle: saline + alcohol) was 2 % of control.
Take `COC(=O)c1cc2cc(C)c(C)c(C)c2c2ccc(C)cc12`: the T/C under setting [1] was 101 % of control.
`Cc1c(CNc2ccc(C(=O)NC(CC(=O)O)C(=O)O)cc2)ccc2nc(N)nc(N)c12` (centres undefined): the T/C is 28 % of control under setting [2]; 26 % of control (endpoint: median tumor weight (est.), dose: 3.13 mg/kg/injection, schedule: Q07DX005 (ip), vehicle: saline with Tween-80); 29 % of control under setting [3].
As for `CCc1nc(N)nc(N)c1-c1ccc(Cl)c([N+](=O)[O-])c1`, the T/C was 47 % of control (endpoint: median tumor weight change, dose: 6.25 mg/kg/injection, schedule: Q01DX001 (ip), vehicle: saline with Tween-80); 39 % of control (endpoint: median tumor weight change, dose: 12.5 mg/kg/injection, schedule: Q01DX001 (ip), vehicle: saline with Tween-80); 20 % of control (endpoint: median tumor weight change, dose: 25.0 mg/kg/injection, schedule: Q01DX001 (ip), vehicle: saline with Tween-80); 38 % of control under setting [4]; 47 % of control under setting [5].
Turning to `CCCCC1CCCCCCc2[nH]c(/C=C3\N=C(c4ccc[nH]4)C=C3OC)cc21` (centres undefined), the T/C runs as follows: (endpoint: median tumor weight change, dose: 0.38 mg/kg/injection, schedule: Q01DX001 (ip), vehicle: saline with Tween-80) 92 % of control; (endpoint: median tumor weight change, dose: 0.75 mg/kg/injection, schedule: Q01DX001 (ip), vehicle: saline with Tween-80) 78 % of control; (endpoint: median tumor weight change, dose: 1.5 mg/kg/injection, schedule: Q01DX001 (ip), vehicle: saline with Tween-80) 104 % of control; (endpoint: median tumor weight change, dose: 3.0 mg/kg/injection, schedule: Q01DX001 (ip), vehicle: saline with Tween-80) 102 % of control.
Turning to `NC(CCC(=O)NC(CS)C(=O)NCC(=O)O)C(=O)O` (centres undefined), the T/C is, setting by setting: (endpoint: median tumor weight change, dose: 125.0 mg/kg/injection, schedule: Q01DX001 (ip), vehicle: saline) 74 % of control; (endpoint: median tumor weight change, dose: 500.0 mg/kg/injection, schedule: Q01DX001 (ip), vehicle: saline) 82 % of control.
For the molecule `NCCCNCCSP(=O)(O)O`, the T/C is, setting by setting: under setting [6], 39 % of control; under setting [7], 33 % of control; under setting [1], 50 % of control; (endpoint: median tumor weight (est.), dose: 200.0 mg/kg/injection, schedule: Q07DX005 (ip), vehicle: saline with Tween-80) 28 % of control; (endpoint: median tumor weight (est.), dose: 400.0 mg/kg/injection, schedule: Q07DX005 (ip), vehicle: saline with Tween-80) 42 % of control.
For the molecule `O=c1s[se]c2ccccc12`, the T/C by setting is: under setting [2], 86 % of control; under setting [3], 187 % of control; (endpoint: median tumor weight (est.), dose: 12.5 mg/kg/injection, schedule: Q07DX005 (ip), vehicle: saline with Tween-80) 156 % of control; under setting [6], 82 % of control; under setting [7], 81 % of control.
Regarding `CCN(C)N=Nc1ccc(C(N)=O)cc1`, the T/C reads like this: (endpoint: median tumor weight change, dose: 50.0 mg/kg/injection, schedule: Q01DX001 (ip), vehicle: Klucel (hydroxypropylcellulose) (HPC)) 51 % of control; (endpoint: median tumor weight change, dose: 62.5 mg/kg/injection, schedule: Q01DX001 (ip), vehicle: Klucel (hydroxypropylcellulose) (HPC)) 92 % of control; (endpoint: median tumor weight change, dose: 100.0 mg/kg/injection, schedule: Q01DX001 (ip), vehicle: Klucel (hydroxypropylcellulose) (HPC)) 72 % of control; under setting [8], 91 % of control; (endpoint: median tumor weight change, dose: 200.0 mg/kg/injection, schedule: Q01DX001 (ip), vehicle: Klucel (hydroxypropylcellulose) (HPC)) 44 % of control; under setting [9], 24 % of control. Further, the T/C (endpoint: median tumor weight change, dose: 400.0 mg/kg/injection, schedule: Q01DX001 (ip), vehicle: Klucel (hydroxypropylcellulose) (HPC)) was 21 % of control.
For `NC(=S)Nc1cccc2ccccc12`, the T/C reads like this: (endpoint: median tumor weight change, dose: 31.25 mg/kg/injection, schedule: Q01DX001 (ip), vehicle: saline with Tween-80) 58 % of control; (endpoint: median tumor weight change, dose: 62.5 mg/kg/injection, schedule: Q01DX001 (ip), vehicle: saline with Tween-80) 80 % of control.
As to `CC(=O)NC(CCc1ccc(Cl)c(Cl)c1)c1cccc(O)c(=O)c1` (centres undefined), the T/C was 114 % of control (endpoint: median tumor weight change, dose: 31.0 mg/kg/injection, schedule: Q01DX001 (ip), vehicle: Klucel (hydroxypropylcellulose) (HPC)); 99 % of control (endpoint: median tumor weight change, dose: 62.0 mg/kg/injection, schedule: Q01DX001 (ip), vehicle: Klucel (hydroxypropylcellulose) (HPC)); 165 % of control under setting [8]; 88 % of control under setting [9]; 88 % of control under setting [10].
Consider `C=C1C(=O)OCC1C(=O)O` (centres undefined), for which the T/C is, setting by setting: (endpoint: median tumor weight change, dose: 15.62 mg/kg/injection, schedule: Q01DX001 (ip), vehicle: suspension in saline) 101 % of control; (endpoint: median tumor weight change, dose: 62.5 mg/kg/injection, schedule: Q01DX001 (ip), vehicle: suspension in saline) 89 % of control; (endpoint: median tumor weight change, dose: 125.0 mg/kg/injection, schedule: Q01DX001 (ip), vehicle: suspension in saline) 123 % of control.
In the case of `C/C=C\C(C)=C/C(C)C(=O)CC(O)CC1CC(=O)NC(=O)C1` (centres undefined), the T/C reads like this: under setting [4], 66 % of control; (endpoint: median tumor weight change, dose: 56.0 mg/kg/injection, schedule: Q01DX001 (ip), vehicle: DMSO) 58 % of control; under setting [5], 66 % of control; (endpoint: median tumor weight change, dose: 112.0 mg/kg/injection, schedule: Q01DX001 (ip), vehicle: DMSO) 60 % of control; (endpoint: median tumor weight change, dose: 200.0 mg/kg/injection, schedule: Q01DX001 (ip), vehicle: saline with Tween-80) 73 % of control; (endpoint: median tumor weight change, dose: 225.0 mg/kg/injection, schedule: Q01DX001 (ip), vehicle: DMSO) 77 % of control. Also, where the note is “endpoint: median tumor weight change, dose: 400.0 mg/kg/injection, schedule: Q01DX001 (ip), vehicle: saline with Tween-80”, the T/C is 98 % of control.
As to `COc1cc(C(=O)N/N=C/c2cccc([N+](=O)[O-])c2)cc(OC)c1OC`, the T/C was 94 % of control (endpoint: median tumor weight change, dose: 125.0 mg/kg/injection, schedule: Q01DX001 (ip), vehicle: saline with Tween-80); 60 % of control (endpoint: median tumor weight change, dose: 250.0 mg/kg/injection, schedule: Q01DX001 (ip), vehicle: saline with Tween-80); 108 % of control (endpoint: median tumor weight change, dose: 500.0 mg/kg/injection, schedule: Q01DX001 (ip), vehicle: saline with Tween-80); 115 % of control (endpoint: median tumor weight change, dose: 1000.0 mg/kg/injection, schedule: Q01DX001 (ip), vehicle: saline with Tween-80); 119 % of control (endpoint: median tumor weight change, dose: 2000.0 mg/kg/injection, schedule: Q01DX001 (ip), vehicle: saline with Tween-80).
Take `O=C(O)C1(NO)CCCCC1`: the T/C by setting is: under setting [8], 76 % of control; under setting [9], 64 % of control; under setting [10], 61 % of control; (endpoint: median tumor weight change, dose: 1000.0 mg/kg/injection, schedule: Q01DX001 (ip), vehicle: Klucel (hydroxypropylcellulose) (HPC)) 76 % of control; (endpoint: median tumor weight change, dose: 2000.0 mg/kg/injection, schedule: Q01DX001 (ip), vehicle: Klucel (hydroxypropylcellulose) (HPC)) 124 % of control.
With `Cc1ccc(C2NC(=O)c3ccccc3N2)s1` (centres undefined), the T/C by setting is: (endpoint: mean tumor weight, dose: 25.0 mg/kg/injection, schedule: Q07DX005 (ip), vehicle: Klucel (hydroxypropylcellulose) (HPC)) 82 % of control; (endpoint: mean tumor weight, dose: 50.0 mg/kg/injection, schedule: Q07DX005 (ip), vehicle: Klucel (hydroxypropylcellulose) (HPC)) 88 % of control; (endpoint: mean tumor weight, dose: 100.0 mg/kg/injection, schedule: Q07DX005 (ip), vehicle: Klucel (hydroxypropylcellulose) (HPC)) 106 % of control; (endpoint: mean tumor weight, dose: 200.0 mg/kg/injection, schedule: Q07DX005 (ip), vehicle: Klucel (hydroxypropylcellulose) (HPC)) 105 % of control; (endpoint: mean tumor weight, dose: 400.0 mg/kg/injection, schedule: Q07DX005 (ip), vehicle: Klucel (hydroxypropylcellulose) (HPC)) 123 % of control; (endpoint: median tumor weight (est.), dose: 12.5 mg/kg/injection, schedule: Q07DX005 (ip), vehicle: Klucel (hydroxypropylcellulose) (HPC)) 78 % of control. For the same molecule, the T/C runs as follows: (endpoint: median tumor weight (est.), dose: 25.0 mg/kg/injection, schedule: Q07DX005 (ip), vehicle: Klucel (hydroxypropylcellulose) (HPC)) 14 % of control; (endpoint: median tumor weight (est.), dose: 50.0 mg/kg/injection, schedule: Q07DX005 (ip), vehicle: Klucel (hydroxypropylcellulose) (HPC)) 110 % of control.
